# Experimental data published in patent US9006487B2, “Amine-containing lipids and uses thereof” (Massachusetts Institute of Technology, priority 2005, dated 2015).
# System: cos-7 cells
# Assay: DNA transfection: luciferase expression relative to Lipofectamine 2000
# Format: cell-based
# Conditions: for Luciferase expression as a percentage of that achieved using Lipofectamine 2000: 300 ng Luciferase DNA per well
# In short: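 Lipid/DNA complexes, 300 ng luciferase DNA per well at 2.5-25 w/w lipid:DNA, were formed in sodium acetate/Optimem and added to overnight-seeded cos-7 cells. Luciferase was measured by Bright-Glo luminescence after 48 hours and quantified against an enzyme standard curve. Values are expressed as % of Lipofectamine 2000 at 2.5 w/w.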
# [1] = lipid/DNA 2.5 w/w, luciferase assay after 48 hours
# [2] = lipid/DNA 5 w/w, luciferase assay after 48 hours
# [3] = lipid/DNA 10 w/w, luciferase assay after 48 hours
# [4] = lipid/DNA 15 w/w, luciferase assay after 48 hours
# [5] = lipid/DNA 20 w/w, luciferase assay after 48 hours
# [6] = lipid/DNA 25 w/w, luciferase assay after 48 hours
# [7] = lipid/DNA 2.5 w/w, 72 hours incubation before bright-glo
# [8] = lipid/DNA 5 w/w, 72 hours incubation before bright-glo
# [9] = lipid/DNA 10 w/w, 72 hours incubation before bright-glo
# [10] = lipid/DNA 15 w/w, 72 hours incubation before bright-glo
# [11] = lipid/DNA 20 w/w, 72 hours incubation before bright-glo
# [12] = lipid/DNA 25 w/w, 72 hours incubation before bright-glo
SMILES,Luciferase expression as a percentage of that achieved using Lipofectamine 2000 [1] [%],Luciferase expression as a percentage of that achieved using Lipofectamine 2000 [2] [%],Luciferase expression as a percentage of that achieved using Lipofectamine 2000 [3] [%],Luciferase expression as a percentage of that achieved using Lipofectamine 2000 [4] [%],Luciferase expression as a percentage of that achieved using Lipofectamine 2000 [5] [%],Luciferase expression as a percentage of that achieved using Lipofectamine 2000 [6] [%],other results
CCCCCCCCCCCCCCCOC(=O)CCN(CCCN1CCOCC1)CCC(=O)OCCCCCCCCCCCCCCC [LG91],0.2,0.2,0.1,0.2,0.1,0.1,–
CCCCCCCCCCCCCCCOC(=O)CCN(CCCn1ccnc1)CCC(=O)OCCCCCCCCCCCCCCC [LG93],3.6,9.2,19.8,37.3,24.0,24.6,"Luciferase expression as a percentage of that achieved using Lipofectamine 2000 [7]: 45.0%; luciferase expression (second part of table, values relative to LIPO2000) [7]: 45.0; Luciferase expression as a percentage of that achieved using Lipofectamine 2000 [8]: 43.8%; luciferase expression (second part of table, values relative to LIPO2000) [8]: 43.8; Luciferase expression as a percentage of that achieved using Lipofectamine 2000 [9]: 310.5%; luciferase expression (second part of table, values relative to LIPO2000) [9]: 310.5; Luciferase expression as a percentage of that achieved using Lipofectamine 2000 [10]: 281.8%; luciferase expression (second part of table, values relative to LIPO2000) [10]: 281.8; Luciferase expression as a percentage of that achieved using Lipofectamine 2000 [11]: 185.9%; luciferase expression (second part of table, values relative to LIPO2000) [11]: 185.9; Luciferase expression as a percentage of that achieved using Lipofectamine 2000 [12]: 183.8%; luciferase expression (second part of table, values relative to LIPO2000) [12]: 183.8"
CCCCCCCCCCCCCCCCCCOC(=O)CCN(CCCOC)CCC(=O)OCCCCCCCCCCCCCCCCCC [LH1],0.0,0.0,0.0,0.0,0.0,0.0,–
CCCCCCCCCCCCCCCCCCOC(=O)CCN(CCC(=O)OCCCCCCCCCCCCCCCCCC)CCC1OCCO1 [LH6],0.0,0.0,0.0,0.0,0.0,0.0,–
CCCCCCCCCCCCCCCCCCOC(=O)CCN(CCC(=O)OCCCCCCCCCCCCCCCCCC)CC1COC(C)(C)O1 (centres unmarked) [LH7],0.0,0.0,0.0,0.0,0.0,0.0,–
CCCCCCCCCCCCCCCCCCOC(=O)CCN(CCOC)CCC(=O)OCCCCCCCCCCCCCCCCCC [LH10],0.0,0.0,0.0,0.0,0.0,0.0,–
CCCCCCCCCCCCCCCCCCOC(=O)CCN(CCOCC)CCC(=O)OCCCCCCCCCCCCCCCCCC [LH11],0.0,0.0,0.0,0.0,0.0,0.0,–
CCCCCCCCCCCCCCCCCCOC(=O)CCN(CCC(=O)OCCCCCCCCCCCCCCCCCC)CC(OC)OC [LH13],0.0,0.0,0.0,0.0,0.0,0.0,–
CCCCCCCCCCCCCCCCCCOC(=O)CCN(CCC(=O)OCCCCCCCCCCCCCCCCCC)CC1CCCO1 (centres unmarked) [LH15],0.0,0.0,0.0,0.0,0.0,0.0,–
CCCCCCCCCCCCCCCCCCOC(=O)CCN(CCC(=O)OCCCCCCCCCCCCCCCCCC)CCc1ccc(OC)c(OC)c1 [LH17],0.0,0.0,0.0,0.0,0.0,0.0,–
CCCCCCCCCCCCCCCCCCOC(=O)CCN(CCCO)CCC(=O)OCCCCCCCCCCCCCCCCCC [LH20],0.0,0.0,0.0,0.0,0.0,0.0,–
CCCCCCCCCCCCCCCCCCOC(=O)CCN(CCC(=O)OCCCCCCCCCCCCCCCCCC)C[C@@H](C)O [LH21],0.0,0.0,0.0,0.0,0.0,0.0,–
CCCCCCCCCCCCCCCCCCOC(=O)CCN(CCC(=O)OCCCCCCCCCCCCCCCCCC)C[C@H](C)O [LH22],0.0,0.0,0.0,0.0,0.0,0.0,–
CCCCCCCCCCCCCCCCCCOC(=O)CCN(CCCCO)CCC(=O)OCCCCCCCCCCCCCCCCCC [LH28],–,–,0.2,0.2,–,–,–
CCCCCCCCCCCCNC(=O)CCN(CCC(=O)NCCCCCCCCCCCC)C(C)(CO)CO [ND26],–,–,–,–,–,–,"luciferase expression (second part of table, values relative to LIPO2000) (lipid/DNA 2.5 w/w, 300 ng of DNA per well): 13.4; luciferase expression (second part of table, values relative to LIPO2000) (lipid/DNA 5 w/w, 300 ng of DNA per well): 2.3; luciferase expression (second part of table, values relative to LIPO2000) (lipid/DNA 10 w/w, 300 ng of DNA per well): 0.1; luciferase expression (second part of table, values relative to LIPO2000) (lipid/DNA 15 w/w, 300 ng of DNA per well): 0.0; luciferase expression (second part of table, values relative to LIPO2000) (lipid/DNA 20 w/w, 300 ng of DNA per well): 0.0; luciferase expression (second part of table, values relative to LIPO2000) (lipid/DNA 25 w/w, 300 ng of DNA per well): 0.0"
